The numbers were not newly measured in patent US20110245283A1, “Methods for predicting the response to statins” (priority 2009, published 2011), which cites them from elsewhere.

Read-outs that look alike come from different tables or passages of the source.

For this data set the following is noted: cited from earlier work.

On to Colestipol, for which the “Severity of the interaction” value (with Prava) was 2.

For `CCC[C@@]1(CCc2ccccc2)CC(O)=C([C@H](CC)c2cccc(NS(=O)(=O)c3ccc(C(F)(F)F)cn3)c2)C(=O)O1` [Tipranavir], for the setting “with Lova”, the “Increased risk of toxicity or reduced statin effectiveness” value was “(+)” and the “Severity of the interaction” value is recorded as 3. For the setting “with Simva”, the “Increased risk of toxicity or reduced statin effectiveness” value was “(+)” and the “Severity of the interaction” value was 3.

Regarding `COC(=O)N[C@H](C(=O)N[C@@H](Cc1ccccc1)[C@@H](O)CN(Cc1ccc(-c2ccccn2)cc1)NC(=O)[C@@H](NC(=O)OC)C(C)(C)C)C(C)(C)C` [Atazanavir], the “Increased risk of toxicity or reduced statin effectiveness” value is, setting by setting: (with Atorva) “(+)”; (with Lova) “(+)”; (with Simva) “(+)”. Further, the “Severity of the interaction” value was 3 (with Atorva), 3 (with Lova) and 3 (with Simva).

Regarding `CC(C)Nc1cccnc1N1CCN(C(=O)c2cc3cc(NS(C)(=O)=O)ccc3[nH]2)CC1` [Delavirdine], under “with Atorva”, the “Increased risk of toxicity or reduced statin effectiveness” value is given as “(+)” and the “Severity of the interaction” value is 2.

Take `COCC(=O)O[C@]1(CCN(C)CCCc2nc3ccccc3[nH]2)CCc2cc(F)ccc2[C@@H]1C(C)C` [Mibefradil]: the “Increased risk of toxicity or reduced statin effectiveness” value is recorded as “(+)” (with Atorva); “(+)” (with Fluva); “(+)” (with Lova); “(+)” (with Prava); “(+)” (with Simva). The “Severity of the interaction” value is 3 (with Atorva); 1 (with Fluva); 4 (with Lova); 1 (with Prava); 4 (with Simva).

`NC(=O)N1c2ccccc2C=Cc2ccccc21` [Carbamazepine]: where the note is “with Simva”, the “Severity of the interaction” value is 2.

For `CCC(C)n1ncn(-c2ccc(N3CCN(c4ccc(OCC5COC(Cn6cncn6)(c6ccc(Cl)cc6Cl)O5)cc4)CC3)cc2)c1=O` (stereo not drawn) [Itraconazole], the “Increased risk of toxicity or reduced statin effectiveness” value (with Atorva) is reported as “(+)”, the “Increased risk of toxicity or reduced statin effectiveness” value (with Lova) was “(+)”, the “Increased risk of toxicity or reduced statin effectiveness” value (with Rosuva) is given as “(+)” and the “Increased risk of toxicity or reduced statin effectiveness” value (with Simva) is listed as “(+)”. In addition, the “Severity of the interaction” value by setting is: (with Atorva) 3; (with Lova) 4; (with Rosuva) 2; (with Simva) 4.

With `C#C[C@]1(O)CC[C@H]2[C@@H]3CCC4=Cc5oncc5C[C@]4(C)[C@H]3CC[C@@]21C` [Danazol], the “Increased risk of toxicity or reduced statin effectiveness” value (with Simva) was “(+)”.

Take `OC(Cn1cncn1)(Cn1cncn1)c1ccc(F)cc1F` [Fluconazole]: the “Increased risk of toxicity or reduced statin effectiveness” value reads like this: (with Atorva) “(+)”; (with Fluva) “(+)”; (with Lova) “(+)”; (with Rosuva) “(+)”; (with Simva) “(+)”.

Regarding `CC(C)OC(=O)C(C)(C)Oc1ccc(C(=O)c2ccc(Cl)cc2)cc1` [Fenofibrate], the “Increased risk of toxicity or reduced statin effectiveness” value is, setting by setting: (with Atorva) “(+)”; (with Fluva) “(+)”; (with Lova) “(+)”; (with Prava) “(+)”; (with Simva) “(+)”.

With `COC(=O)[C@H](c1ccccc1Cl)N1CCc2sccc2C1` [Clopidogrel], under “with Fluva”, the “Increased risk of toxicity or reduced statin effectiveness” value is recorded as “(+)” and the “Severity of the interaction” value is listed as 2.

As for `Cc1c(C)c2c(c(C)c1O)CCC(C)(COc1ccc(CC3SC(=O)NC3=O)cc1)O2` (stereo not drawn) [Troglitazone], the “Severity of the interaction” value (with Simva) is reported as 1.

On to Pectin, for which the “Severity of the interaction” value is, setting by setting: (with Atorva) 2; (with Fluva) 2; (with Lova) 2; (with Prava) 2; (with Rosuva) 2; (with Simva) 2.

Regarding Magaldrate, where the note is “with Rosuva”, the “Severity of the interaction” value is 2.

Turning to `O=C1NC(c2ccccc2)(c2ccccc2)C(=O)N1COP(=O)(O)O` [Fosphenytoin], the “Severity of the interaction” value by setting is: (with Atorva) 2; (with Simva) 2.

Regarding `CC[C@H]1OC(=O)[C@H](C)[C@@H](O[C@H]2C[C@@](C)(OC)[C@@H](O)[C@H](C)O2)[C@H](C)[C@@H](O[C@@H]2O[C@H](C)C[C@H](N(C)C)[C@H]2O)[C@](C)(OC)C[C@@H](C)C(=O)[C@H](C)[C@@H](O)[C@]1(C)O` [Clarithromycin], the “Increased risk of toxicity or reduced statin effectiveness” value is on record as “(+)” (with Atorva), “(+)” (with Lova) and “(+)” (with Simva). Moreover, the “Severity of the interaction” value reads like this: (with Atorva) 3; (with Lova) 3; (with Simva) 3.

Turning to Cholestyramine, the “Severity of the interaction” value is, setting by setting: (with Fluva) 1; (with Prava) 2.

On to `COc1ccc2[nH]c([S+]([O-])Cc3ncc(C)c(OC)c3C)nc2c1` (stereo not drawn) [Omeprazole], for which, where the note is “with Fluva”, the “Increased risk of toxicity or reduced statin effectiveness” value is recorded as “(+)” and the “Severity of the interaction” value is 1.

For the compound `COc1ccccc1Oc1c(NS(=O)(=O)c2ccc(C(C)(C)C)cc2)nc(-c2ncccn2)nc1OCCO` [Bosentan], the “Severity of the interaction” value runs as follows: (with Atorva) 2; (with Lova) 2; (with Simva) 2.

With `CCN(CC)CCS(=O)(=O)[C@@H]1CCN2C(=O)c3coc(n3)CC(=O)C[C@H](O)/C=C(C)/C=C/CNC(=O)/C=C/[C@@H](C)[C@@H](C(C)C)OC(=O)[C@@H]12` [Dalfopristin], the “Increased risk of toxicity or reduced statin effectiveness” value is on record as “(+)” (with Atorva); “(+)” (with Fluva); “(+)” (with Lova); “(+)” (with Prava); “(+)” (with Simva). Besides, the “Severity of the interaction” value (with Atorva) is given as 3; the “Severity of the interaction” value (with Fluva) was 3; the “Severity of the interaction” value (with Lova) is given as 3; the “Severity of the interaction” value (with Prava) is given as 3; the “Severity of the interaction” value (with Simva) is given as 3.

As for `CC(C)(Oc1ccc(C2CC2(Cl)Cl)cc1)C(=O)O` (stereo not drawn) [Ciprofibrate], the “Increased risk of toxicity or reduced statin effectiveness” value is “(+)” (with Atorva); “(+)” (with Fluva); “(+)” (with Lova); “(+)” (with Prava); “(+)” (with Simva). Also, the “Severity of the interaction” value runs as follows: (with Atorva) 3; (with Fluva) 3; (with Lova) 3; (with Prava) 3; (with Simva) 3.

`CC(C)(Oc1ccc(CCNC(=O)c2ccc(Cl)cc2)cc1)C(=O)O` [Bezafibrate]: the “Increased risk of toxicity or reduced statin effectiveness” value is recorded as “(+)” (with Atorva); “(+)” (with Fluva); “(+)” (with Lova); “(+)” (with Prava); “(+)” (with Simva). Also, the “Severity of the interaction” value is given as 3 (with Atorva); 3 (with Fluva); 3 (with Lova); 3 (with Prava); 3 (with Simva).

As for `CCc1nn(CCCN2CCN(c3cccc(Cl)c3)CC2)c(=O)n1CCOc1ccccc1` [Nefazodone], the “Increased risk of toxicity or reduced statin effectiveness” value is given as “(+)” (with Atorva), “(+)” (with Lova), “(+)” (with Prava) and “(+)” (with Simva). Moreover, the “Severity of the interaction” value is listed as 3 (with Atorva), 3 (with Lova), 2 (with Prava) and 3 (with Simva).

As for `CC(C)CN(C[C@@H](OP(=O)(O)O)[C@H](Cc1ccccc1)NC(=O)O[C@H]1CCOC1)S(=O)(=O)c1ccc(N)cc1` [Fosamprenavir], the “Increased risk of toxicity or reduced statin effectiveness” value by setting is: (with Atorva) “(+)”; (with Lova) “(+)”; (with Simva) “(+)”. Further, the “Severity of the interaction” value by setting is: (with Atorva) 3; (with Lova) 3; (with Simva) 3.

On to `COc1ccc2nc([S@@+]([O-])Cc3ncc(C)c(OC)c3C)[nH]c2c1` [Esomeprazole], for which, under “with Atorva”, the “Increased risk of toxicity or reduced statin effectiveness” value is “(+)” and the “Severity of the interaction” value is 3.

For `CC(=O)N1CCN(c2ccc(OCC3COC(Cn4ccnc4)(c4ccc(Cl)cc4Cl)O3)cc2)CC1` (stereo not drawn) [Ketoconazole], the “Increased risk of toxicity or reduced statin effectiveness” value is reported as “(+)” (with Atorva), “(+)” (with Lova) and “(+)” (with Simva). For the same compound, the “Severity of the interaction” value is reported as 3 (with Atorva), 3 (with Lova) and 3 (with Simva).

In the case of `O=C(O)c1cccnc1` [Niacin], the “Increased risk of toxicity or reduced statin effectiveness” value reads like this: (with Atorva) “(+)”; (with Fluva) “(+)”; (with Lova) “(+)”; (with Prava) “(+)”; (with Rosuva) “(+)”; (with Simva) “(+)”. In addition, the “Severity of the interaction” value is on record as 3 (with Atorva); 2 (with Fluva); 3 (with Lova); 2 (with Prava); 3 (with Rosuva); 3 (with Simva).
